Experimental data from publication PMC8259865, “Design and green synthesis of novel quinolinone derivatives of potential anti-breast cancer activity against MCF-7 cell line targeting multi-receptor tyrosine kinases” (Journal of Enzyme Inhibition and Medicinal Chemistry, 2021).
Entries after “also recorded” stand apart in the source; their conditions may differ. Values belong to the compound of their own block, whether it stands above or below them.

What was measured:
[1] = system: human breast cancer MCF-7 cell line; test: MTT cytotoxicity assay against MCF-7 breast cancer cells; type: cell-based; settings: for IC50: Homo sapiens, MCF7, MTT assay, MCF-7 cells, average of at least three independent experiments, read-out: Anticancer activity against MCF-7 cells IC50 mean ± SD
Description: MTT assay was used to evaluate the in vitro cytotoxicity of the new compounds against breast cancer cell lines MCF-7[38]. More details are present in the Supplementary file.
S1: In vitro cytotoxicity experiment
MTT assay was used to evaluate the in vitro cytotoxicity of the new compounds against breast cancer cell lines MCF-7 [39]. MTT assay depends on the reduction of the soluble 3-(4,5-methyl-2-thiazolyl)-2,5-diphenyl-2H-tetrazolium bromide (MTT) into a blue purple formazan product, mainly by mitochondrial reductase activity inside the living cells. The cells used in cytotoxicity […]
at 37 °C in a 5% CO 2 incubator. After 12 h, the test sampl e (2 μL) was added to the cells (2 × 10 4) in 96-well plates and cultured at 37 ◦C for 3 days. The cultured cells were mixed with 20 μL of MTT solution and incubated for 4 h at 37 °C. The supernatant was carefully removed from each well and 100 μL of DMSO we re added to each well to dissolve the formazan crystals which were formed by the cellular reduction of MTT. […]

normal WI38 cells = test: MTT assay against normal WI38 cells (safety profile); type: cell-based, human; settings: for IC50: Homo sapiens, WI-38, MTT assay, normal WI38 cells derived from lung tissues, read-out: IC50 against the normal WI38 cells mean ± SD; for IC50 against WI38 cells, fold higher than IC50 of staurosporine: relative to staurosporine; for IC50 against WI38 cells, fold higher than IC50 against cancer (MCF-7) cells: WI38 vs MCF-7
Description: One of the characteristics differentiating different anticancer agents from each other is the recurrence and severity of their side effects to the normal cells at their therapeutic doses. […].

MCF-7 cells [2] = test: Annexin-V/PI apoptosis assay by flow cytometry; type: cell-based, human; settings: compound at its IC50 concentration, 24 h
Procedure: (§1) Cell cycle analysis and apoptosis investigation were carried out by flow cytometry.[39]^,[40] […] After treatment with the tested compound, for 24 h, cell pellets were collected and centrifuged (300 g, 5 min).
Flow cytometry method[39]^,[49] has been used to detect the corresponding red (PI) and green (FITC) fluorescence. It has been noted that there was an increment in the percentages of the late apoptosis produced by the evaluated compounds 4b and 4j from 0.13% (control DMSO/MCF-7 cells) to 13.81% and 22.03%, respectively. Also, the tested compounds produced early apoptotic effects of 6.15% and 3.27% compared to 0.58% of the untreated MCF-7 cell with necrosis percent of 4.37% and 9.22%, respectively, vs. 0.66% produced by the DMSO control (Figures 4 and 5).

MCF-7 cells [3] = test: Cell cycle analysis by flow cytometry; type: cell-based, human; settings: for %G0–G1 / %G2/M / %Pre-G1 / %S: compound at its IC50 concentration, 24 h
Procedure: as §1
The induction of apoptosis is one of the most crucial tools that confirm the effectiveness of cancer therapy. Cell cycle checkpoints are G1 (restriction or start), S ([…]), and G2/M. One of the main functions of the anticancer therapeutics is stoppage of the cell division at these checkpoints.[51] […] The cells were stained with Annexin V/PI and examined using flow cytometry procedure.

PDGFR-α = test: In vitro kinase inhibition assay, PDGFR-α; settings: for IC50: read-out: PDGFR-α IC50
Description: (§2) The procedure of the used kits was done according to the manufacturer, s instructions.
(§3) Which are: EGFR, human epidermal growth factor receptor (HER2), PDGFR-α, and VEGFR-2.

HER-2 = HER-2 (Homo sapiens, UniProt P04626); test: In vitro kinase inhibition assay, HER-2 (ADP-Glo Kinase Assay)
Chain of HER-2 (P04626 23-1255): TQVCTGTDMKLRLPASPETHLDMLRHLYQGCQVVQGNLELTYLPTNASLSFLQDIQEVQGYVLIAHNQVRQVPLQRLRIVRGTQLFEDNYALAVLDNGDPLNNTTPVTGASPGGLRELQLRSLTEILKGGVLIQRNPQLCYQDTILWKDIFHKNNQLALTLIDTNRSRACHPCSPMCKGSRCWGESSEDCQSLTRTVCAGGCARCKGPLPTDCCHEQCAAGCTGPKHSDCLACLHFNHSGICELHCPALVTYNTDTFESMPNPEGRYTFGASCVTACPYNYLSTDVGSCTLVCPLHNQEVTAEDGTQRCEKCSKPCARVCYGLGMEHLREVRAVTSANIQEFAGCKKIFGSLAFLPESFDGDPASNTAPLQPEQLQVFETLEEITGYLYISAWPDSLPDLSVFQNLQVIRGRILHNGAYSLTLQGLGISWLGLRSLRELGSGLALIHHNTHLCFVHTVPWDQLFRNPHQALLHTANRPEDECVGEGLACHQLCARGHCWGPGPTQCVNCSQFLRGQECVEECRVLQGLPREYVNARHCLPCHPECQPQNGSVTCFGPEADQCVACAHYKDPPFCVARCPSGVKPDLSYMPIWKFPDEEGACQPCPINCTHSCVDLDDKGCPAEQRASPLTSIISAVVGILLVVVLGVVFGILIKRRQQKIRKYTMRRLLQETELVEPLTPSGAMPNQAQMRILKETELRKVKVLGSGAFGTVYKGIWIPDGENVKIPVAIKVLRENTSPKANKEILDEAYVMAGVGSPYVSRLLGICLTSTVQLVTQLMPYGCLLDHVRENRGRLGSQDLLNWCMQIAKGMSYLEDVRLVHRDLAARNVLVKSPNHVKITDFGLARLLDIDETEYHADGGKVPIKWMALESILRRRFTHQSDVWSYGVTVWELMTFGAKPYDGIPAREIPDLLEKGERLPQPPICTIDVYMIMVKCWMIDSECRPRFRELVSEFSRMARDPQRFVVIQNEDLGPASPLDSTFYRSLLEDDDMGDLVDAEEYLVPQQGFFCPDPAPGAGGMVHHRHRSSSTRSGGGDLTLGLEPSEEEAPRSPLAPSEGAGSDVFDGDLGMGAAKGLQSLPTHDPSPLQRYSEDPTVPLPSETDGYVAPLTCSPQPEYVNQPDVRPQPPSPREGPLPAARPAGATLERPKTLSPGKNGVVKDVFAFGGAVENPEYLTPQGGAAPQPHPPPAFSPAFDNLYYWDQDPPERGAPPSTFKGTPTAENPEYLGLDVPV
Description: as §2, §3

VEGFR-2 = VEGFR-2 (Homo sapiens, UniProt P35968); test: In vitro kinase inhibition assay, VEGFR-2 (KDR Kinase Assay Kit)
Chain of VEGFR-2 (P35968 20-1356): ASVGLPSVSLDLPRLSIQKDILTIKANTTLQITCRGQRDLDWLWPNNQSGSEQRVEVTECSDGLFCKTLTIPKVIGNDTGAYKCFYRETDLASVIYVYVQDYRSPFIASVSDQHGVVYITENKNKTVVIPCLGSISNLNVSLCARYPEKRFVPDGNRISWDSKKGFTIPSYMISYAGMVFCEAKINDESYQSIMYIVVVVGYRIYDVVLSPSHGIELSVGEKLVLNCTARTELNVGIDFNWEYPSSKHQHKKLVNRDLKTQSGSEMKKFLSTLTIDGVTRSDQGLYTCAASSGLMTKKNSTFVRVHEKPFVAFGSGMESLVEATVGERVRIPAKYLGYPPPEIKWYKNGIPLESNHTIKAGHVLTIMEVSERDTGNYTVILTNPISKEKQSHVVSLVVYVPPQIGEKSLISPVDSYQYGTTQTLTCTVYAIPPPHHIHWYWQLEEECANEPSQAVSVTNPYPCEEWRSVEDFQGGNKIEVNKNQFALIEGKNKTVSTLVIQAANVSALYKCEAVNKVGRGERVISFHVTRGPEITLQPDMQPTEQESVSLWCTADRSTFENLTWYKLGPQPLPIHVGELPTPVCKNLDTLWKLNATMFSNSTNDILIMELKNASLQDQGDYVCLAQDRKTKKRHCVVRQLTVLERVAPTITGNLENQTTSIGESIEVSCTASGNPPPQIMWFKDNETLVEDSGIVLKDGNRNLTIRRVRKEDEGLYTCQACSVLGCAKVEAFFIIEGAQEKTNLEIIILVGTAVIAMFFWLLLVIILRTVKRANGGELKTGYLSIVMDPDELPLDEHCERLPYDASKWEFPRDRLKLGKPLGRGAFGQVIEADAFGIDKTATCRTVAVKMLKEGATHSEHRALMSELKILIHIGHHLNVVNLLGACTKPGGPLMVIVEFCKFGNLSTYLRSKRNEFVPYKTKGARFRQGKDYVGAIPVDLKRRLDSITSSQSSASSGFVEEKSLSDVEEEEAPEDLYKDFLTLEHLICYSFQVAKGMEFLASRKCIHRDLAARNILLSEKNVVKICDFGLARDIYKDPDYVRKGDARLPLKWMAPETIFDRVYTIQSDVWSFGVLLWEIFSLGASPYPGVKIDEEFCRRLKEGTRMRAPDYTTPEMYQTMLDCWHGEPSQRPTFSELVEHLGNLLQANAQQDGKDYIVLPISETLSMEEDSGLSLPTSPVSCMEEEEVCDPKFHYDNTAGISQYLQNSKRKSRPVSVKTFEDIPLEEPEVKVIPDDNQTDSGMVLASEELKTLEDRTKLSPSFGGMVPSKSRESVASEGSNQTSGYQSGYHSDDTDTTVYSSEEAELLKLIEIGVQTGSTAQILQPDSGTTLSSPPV
Description: as §2, §3

EGFR = EGFR (Homo sapiens, UniProt P00533); test: In vitro kinase inhibition assay, EGFR (Abcam Human In cell ELISA Kit)
Chain of EGFR (P00533 25-1210): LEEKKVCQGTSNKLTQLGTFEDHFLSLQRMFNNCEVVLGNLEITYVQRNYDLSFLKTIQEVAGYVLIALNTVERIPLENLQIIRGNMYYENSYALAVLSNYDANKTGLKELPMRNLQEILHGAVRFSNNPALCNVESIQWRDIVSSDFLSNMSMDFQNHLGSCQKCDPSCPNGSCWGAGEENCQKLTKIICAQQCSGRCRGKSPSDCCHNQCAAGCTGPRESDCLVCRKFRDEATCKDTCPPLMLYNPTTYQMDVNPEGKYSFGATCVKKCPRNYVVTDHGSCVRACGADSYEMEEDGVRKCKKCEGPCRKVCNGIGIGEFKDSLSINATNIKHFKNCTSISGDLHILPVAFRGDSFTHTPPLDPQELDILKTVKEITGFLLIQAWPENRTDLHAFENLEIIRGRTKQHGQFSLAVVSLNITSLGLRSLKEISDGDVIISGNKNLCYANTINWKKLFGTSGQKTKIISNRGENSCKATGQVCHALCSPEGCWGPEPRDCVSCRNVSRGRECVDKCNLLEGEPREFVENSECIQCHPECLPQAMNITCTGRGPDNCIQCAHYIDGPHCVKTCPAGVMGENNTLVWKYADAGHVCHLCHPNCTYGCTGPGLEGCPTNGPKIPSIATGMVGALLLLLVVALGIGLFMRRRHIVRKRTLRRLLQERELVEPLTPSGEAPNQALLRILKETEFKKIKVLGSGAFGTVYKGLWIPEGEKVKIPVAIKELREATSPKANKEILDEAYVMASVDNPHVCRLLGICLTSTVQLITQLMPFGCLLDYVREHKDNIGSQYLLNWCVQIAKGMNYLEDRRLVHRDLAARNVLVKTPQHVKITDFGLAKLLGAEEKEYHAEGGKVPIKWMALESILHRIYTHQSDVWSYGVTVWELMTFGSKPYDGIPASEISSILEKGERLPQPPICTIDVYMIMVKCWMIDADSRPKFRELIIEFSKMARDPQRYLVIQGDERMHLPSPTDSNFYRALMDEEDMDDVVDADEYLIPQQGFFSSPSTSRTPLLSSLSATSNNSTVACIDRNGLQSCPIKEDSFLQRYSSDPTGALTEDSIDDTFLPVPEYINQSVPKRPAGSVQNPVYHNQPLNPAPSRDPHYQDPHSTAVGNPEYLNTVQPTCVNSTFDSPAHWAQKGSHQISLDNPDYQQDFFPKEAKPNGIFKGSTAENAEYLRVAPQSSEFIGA
Description: as §2, §3

Structure (SMILES): COC(=O)C1=C(C)NC2=C(C(=O)CC(C)(C)C2)C1c1ccc(S(=O)(=O)c2ccccc2)cc1 (stereo not drawn) [Compound 4a, Methyl 2,7,7-trimethyl-5-oxo-4–(4-(phenylsulfonyl)phenyl)-1,4,5,6,7,8-hexahydroquinoline-3-carboxylate]
IC50 [1]: 103 ± 13 nM

IC50 (PDGFR-α): 0.21 ± 0.04 nM
IC50 (HER-2): 0.3 ± 0.05 nM
IC50 (VEGFR-2): 1.05 ± 0.02 nM
VEGFR-2 inhibitory effect, fold less than Sorafenib (VEGFR-2): about 6.2 fold
IC50 (EGFR): 0.11 ± 0.03 nM
Structure (SMILES): CCOC(=O)C1=C(C(F)(F)F)NC2=C(C(=O)CC(C)(C)C2)C1c1ccc(S(=O)(=O)c2ccccc2)cc1 (stereo not drawn) [Compound 4b, Ethyl 7,7-dimethyl-5-oxo-4–(4-(phenylsulfonyl)phenyl)-2-(trifluoromethyl)-1,4,5,6,7,8-hexahydroquinoline-3-carboxylate]
IC50 [1]: 2 ± 1 nM
fold more potent than staurosporine against MCF-7 ([1]; ratio of IC50 values, MCF-7): about 2.5 fold
IC50 (normal WI38 cells): 45 ± 13 nM
IC50 against WI38 cells, fold higher than IC50 of staurosporine (normal WI38 cells): about 3 fold
IC50 against WI38 cells, fold higher than IC50 against cancer (MCF-7) cells (normal WI38 cells): 24 fold
early apoptotic effect (MCF-7 cells [2]): 6.15%
late apoptosis percentage (MCF-7 cells [2]): 13.81%
necrosis percent (MCF-7 cells [2]): 4.37%
%G0–G1 (MCF-7 cells [3]): 45.26%
%G2/M (MCF-7 cells [3]): 18.03%
%Pre-G1 (MCF-7 cells [3]): 24.33%
%S (MCF-7 cells [3]): 36.71%

Structure (SMILES): CCOC(=O)C1=C(N)NC2=C(C(=O)CC(C)(C)C2)C1c1ccc(S(=O)(=O)c2ccccc2)cc1 (stereo not drawn) [Compound 4c, Ethyl 2-amino-7,7-dimethyl-5-oxo-4–(4-(phenylsulfonyl)phenyl)-1,4,5,6,7,8-hexahydroquinoline-3-carboxylate]
IC50 [1]: 15 ± 2 nM

Structure (SMILES): CC1(C)CC(=O)C2=C(C1)NC(N)=C(C(=O)c1ccccc1)C2c1ccc(S(=O)(=O)c2ccccc2)cc1 (stereo not drawn) [Compound 4d, 2-Amino-3-benzoyl-7,7-dimethyl-4–(4-(phenylsulfonyl)phenyl)-4,6,7,8-tetrahydroquinolin-5(1H)-one]
IC50 [1]: 7 ± 1 nM
fold less potent than staurosporine against MCF-7 ([1]; ratio of IC50 values, MCF-7): 1.4 fold

Structure (SMILES): Cc1ccc(C(=O)C2=C(N)NC3=C(C(=O)CC(C)(C)C3)C2c2ccc(S(=O)(=O)c3ccccc3)cc2)cc1 (stereo not drawn) [Compound 4e, 2-Amino-7,7-dimethyl-3–(4-methylbenzoyl)-4–(4-(phenylsulfonyl)phenyl)-4,6,7,8-tetrahydroquinolin-5(1H)-one]
IC50 [1]: 4 ± 2 nM
IC50 (normal WI38 cells): 14.9 ± 3 nM
IC50 against WI38 cells, fold higher than IC50 of staurosporine (normal WI38 cells): approximately equal
IC50 against WI38 cells, fold higher than IC50 against cancer (MCF-7) cells (normal WI38 cells): 4 fold

Structure (SMILES): CC1(C)CC(=O)C2=C(C1)NC(N)=C(C(=O)c1ccc(Br)cc1)C2c1ccc(S(=O)(=O)c2ccccc2)cc1 (stereo not drawn) [Compound 4f, 2-Amino-3–(4-bromobenzoyl)-7,7-dimethyl-4–(4-(phenylsulfonyl)phenyl)-4,6,7,8-tetrahydroquinolin-5(1H)-one]
IC50 [1]: 27 ± 14 nM

Structure (SMILES): COC(=O)C1=C(C)NC2=C(C(=O)CC(C)(C)C2)C1c1ccc(S(=O)(=O)c2ccc(C)cc2)cc1 (stereo not drawn) [Compound 4g, Methyl 2,7,7-trimethyl-5-oxo-4–(4-tosylphenyl)-1,4,5,6,7,8-hexahydroquinoline-3-carboxylate]
IC50 [1]: 27 ± 3 nM

Structure (SMILES): CCOC(=O)C1=C(C(F)(F)F)NC2=C(C(=O)CC(C)(C)C2)C1c1ccc(S(=O)(=O)c2ccc(C)cc2)cc1 (stereo not drawn) [Compound 4h, Ethyl 7,7-dimethyl-5-oxo-4–(4-tosylphenyl)-2-(trifluoromethyl)-1,4,5,6,7,8-hexahydroquinoline-3-carboxylate]
IC50 [1]: 41 ± 6 nM

Structure (SMILES): CCOC(=O)C1=C(N)NC2=C(C(=O)CC(C)(C)C2)C1c1ccc(S(=O)(=O)c2ccc(C)cc2)cc1 (stereo not drawn) [Compound 4i, Ethyl 2-amino-7,7-dimethyl-5-oxo-4–(4-tosylphenyl)-1,4,5,6,7,8-hexahydroquinoline-3-carboxylate]
IC50 [1]: 23 ± 3 nM

PDGFR-α inhibition, fold more than sorafenib (PDGFR-α): 1.9 fold
IC50 (PDGFR-α): 0.07 ± 0.01 nM
HER-2 inhibition, folds more potent than Sorafenib (HER-2): about 1.6 fold
IC50 (HER-2): 0.17 ± 0.02 nM
IC50 (VEGFR-2): 0.3 ± 0.06 nM
VEGFR-2 inhibitory effect, fold less than Sorafenib (VEGFR-2): ~1.8 fold
IC50 (EGFR): 0.07 ± 0.02 nM
Structure (SMILES): Cc1ccc(S(=O)(=O)c2ccc(C3C(C(=O)c4ccccc4)=C(N)NC4=C3C(=O)CC(C)(C)C4)cc2)cc1 (stereo not drawn) [Compound 4j, 2-Amino-3-benzoyl-7,7-dimethyl-4–(4-tosylphenyl)-4,6,7,8-tetrahydroquinolin-5(1H)-one]
IC50 [1]: 3 ± 5 nM
IC50 (normal WI38 cells): 48 ± 8 nM
IC50 against WI38 cells, fold higher than IC50 of staurosporine (normal WI38 cells): about 3 fold
early apoptotic effect (MCF-7 cells [2]): 3.27%
late apoptosis percentage (MCF-7 cells [2]): 22.03%
necrosis percent (MCF-7 cells [2]): 9.22%
cell cycle effect in MCF-7 cells (MCF-7 cells [3]): cell cycle disruption at G2/M phase; also recorded: cell cycle arrest at G2/M phase
%G0–G1 (MCF-7 cells [3]): 36.99%
%G2/M (MCF-7 cells [3]): 31.17%
%Pre-G1 (MCF-7 cells [3]): 34.52%
%S (MCF-7 cells [3]): 31.84%

Structure (SMILES): Cc1ccc(C(=O)C2=C(N)NC3=C(C(=O)CC(C)(C)C3)C2c2ccc(S(=O)(=O)c3ccc(C)cc3)cc2)cc1 (stereo not drawn) [Compound 4k, 2-Amino-7,7-dimethyl-3–(4-methylbenzoyl)-4–(4-tosylphenyl)-4,6,7,8-tetrahydroquinolin-5(1H)-one]
IC50 [1]: 4 ± 1 nM
IC50 (normal WI38 cells): 17.6 ± 9 nM
IC50 against WI38 cells, fold higher than IC50 of staurosporine (normal WI38 cells): approximately equal
IC50 against WI38 cells, fold higher than IC50 against cancer (MCF-7) cells (normal WI38 cells): 4 fold

Structure (SMILES): Cc1ccc(S(=O)(=O)c2ccc(C3C(C(=O)c4ccc(Br)cc4)=C(N)NC4=C3C(=O)CC(C)(C)C4)cc2)cc1 (stereo not drawn) [Compound 4l, 2-Amino-3–(4-bromobenzoyl)-7,7-dimethyl-4–(4-tosylphenyl)-4,6,7,8-tetrahydroquinolin-5(1H)-one]
IC50 [1]: 7 ± 1 nM
fold less potent than staurosporine against MCF-7 ([1]; ratio of IC50 values, MCF-7): 1.4 fold

Structure (SMILES): CN[C@@H]1C[C@H]2O[C@@](C)([C@@H]1OC)n1c3ccccc3c3c4c(c5c6ccccc6n2c5c31)C(=O)NC4 [Staurosporine, reference compound]
IC50 (normal WI38 cells): 13 ± 2 nM
